Experimental data reported in patent US8048642B2, “Heme choline esters and uses thereof” (priority 2007, dated 2011).

Assays:
Assay type in all cases: biochemical
[1] = biological target: T1, apo-horseradish peroxidase (apo-HRP) (Armoracia rusticana, UniProt P00433); assay: Blocking and rescue of peroxidase activity with a chemiluminescent substrate; conditions: for Rescue of peroxidase activity of apo-HRP plus heme bis choline ester: esterase added to apo-HRP and heme bis choline ester
T1 sequence (P00433 31-338): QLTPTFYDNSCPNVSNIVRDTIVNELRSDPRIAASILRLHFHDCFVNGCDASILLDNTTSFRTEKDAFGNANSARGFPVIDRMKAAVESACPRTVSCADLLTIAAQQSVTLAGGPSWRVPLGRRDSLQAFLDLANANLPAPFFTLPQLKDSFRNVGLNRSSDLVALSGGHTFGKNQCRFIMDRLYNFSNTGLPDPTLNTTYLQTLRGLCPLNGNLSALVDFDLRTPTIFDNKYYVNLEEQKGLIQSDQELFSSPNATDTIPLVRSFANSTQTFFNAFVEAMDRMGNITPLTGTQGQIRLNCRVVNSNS
Experimental: (§1) A 1-kU/mL stock solution of butyrylcholine esterase was prepared by dissolving 1 kU of lyophilized protein (Sigma C1057) in 1 mL phosphate-buffered saline (PBS, Pierce 28372). An activity of 900 U per mg protein and MW=250000 g/mol was assumed and the concentration of the resultant solution was estimated as 4 μM.
as §1, with “1 kU/mL” for “1-kU/mL”, “acetylcholine” for “butyrylcholine”, “kU” for “kU of”, “C2888)” for “C1057)”, “1000” for “900”, “MW=280000” for “MW=250000”
A fresh 1 mM solution of heme was prepared in 100 mM borate buffer, pH 9.1, as described in Example 5. The 1 cm-path length absorbance of this solution was measured to be 40 at 390 nm using a NanoDrop-1000 Spectrophotometer (NanoDrop Technologies). A 0.1 mM heme solution was then prepared by mixing 100 μL of this stock with 900 μL in PBS.
Less than 1 mg heme bis choline ester was dissolved in 100 μL methanol. 10 μL of the methanol solution was then mixed with 90 μL 100 mM borate buffer, pH 9.1. The 1 cm-path length absorbance of this 10% methanol solution was measured to be 17 absorbance units (au) at 390 nm using a NanoDrop-1000 Spectrophotometer. Assuming the extinction coefficient of heme bis choline ester in 10% methanol was not substantially different than that of heme in PBS, a 0.1 mM solution of heme bis choline ester was then prepared by mixing 23.5 μL of the 10% methanol solution with 77.5 μL PBS.
Solutions of 0.3 μM apo-HRP, 10 μM heme and 10 μM heme bis choline ester in PBS were prepared by dilution of these stock solutions with PBS. […]
90 μL of freshly mixed chemiluminescent substrate (Sigma CPS260, an enhanced luminol product with a stabilized peroxide buffer solution) was added to reaction mixtures 1-6, which were allowed to incubate at room temperature for 5 minutes and the luminescence units (LU) for each was determined with a SpectraMax M2 plate reader in a 96-well format (Molecular Devices), shown below in Table 5.

[2] = biological target: butyrylcholine esterase (BCE) (Equus caballus, UniProt P81908); assay: Hydrolysis of heme bis choline ester by butyrylcholine esterase, followed by HPLC; conditions: bis choline ester with BCE (50 units) in phosphate buffer pH 7.0, HPLC at 400 nm
Sequence of butyrylcholine esterase (BCE) (P81908 whole entry): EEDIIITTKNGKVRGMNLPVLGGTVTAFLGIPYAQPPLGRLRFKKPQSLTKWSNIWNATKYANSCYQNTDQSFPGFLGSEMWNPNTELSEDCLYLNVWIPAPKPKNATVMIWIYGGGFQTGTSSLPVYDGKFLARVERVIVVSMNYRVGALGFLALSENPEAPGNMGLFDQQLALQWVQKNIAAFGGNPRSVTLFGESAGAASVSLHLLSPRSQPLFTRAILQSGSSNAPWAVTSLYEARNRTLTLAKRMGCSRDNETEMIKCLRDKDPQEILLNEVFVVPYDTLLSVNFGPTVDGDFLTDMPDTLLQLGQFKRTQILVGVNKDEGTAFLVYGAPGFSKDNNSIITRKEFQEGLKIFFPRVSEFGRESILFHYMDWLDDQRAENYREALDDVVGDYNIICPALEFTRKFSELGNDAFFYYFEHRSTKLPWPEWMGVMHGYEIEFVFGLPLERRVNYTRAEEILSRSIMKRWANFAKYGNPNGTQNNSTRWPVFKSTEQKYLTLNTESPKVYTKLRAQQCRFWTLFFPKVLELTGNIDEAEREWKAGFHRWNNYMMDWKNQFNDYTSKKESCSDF
Experimental: To confirm enzymatic hydrolysis of heme bis choline ester, a sample of bis choline ester in methanol was added to a solution of butyrylcholine esterase (BCE) (50 units) in phosphate buffer (pH 7.0). The progress of the hydrolysis was determined by HPLC analysis of the reaction mixture using a Waters Xterra C18 reverse phase column (4.6×50 mm). A gradient elution was performed starting with 95:5 water (+0.1% TFA):acetonitrile (+0.1% TFA) up to 0:100 over 10 minutes followed by isocratic elution with acetonitrile (+0.1% TFA) for 5 minutes. […] Under these conditions the bis ester elutes first (tR=5.2 min) followed by the monoester (5.9 min) and heme (6.6 min).

[3] = biological target: T1, apo-horseradish peroxidase (apo-HRP); assay: Recombination of heme and apo-HRP, TMB colorimetry; conditions: heme mixed with 30 pmol apo-horseradish peroxidase, 30 min, background corrected
Experimental: A 250 μM stock solution of horseradish peroxidase type VI (HRP, Sigma P8375, MW=44000 g/mol) was prepared by solubilizing 11 mg of lyophilized protein in 1 mL 100 mM sodium phosphate, pH 7.0.
Heme was extracted from horseradish peroxidase type VI (Sigma P8375) according to the method of Teale (Biochim. Biophys. Acta 35, 543, (1959)). The resultant apo-HRP was dialyzed into 100 mM sodium phosphate, pH 7.0, with 0.1 mM calcium chloride. The concentration of this stock apo-HRP solution was estimated from absorbance at 280 nm as 30 μM by assuming an extinction coefficient of 20000 cm^−1 M^−1 (Lasagna et al., Biophys. J. 76, 443, (1999)).
Within an hour before performing the peroxidase assay a fresh stock solution of approximately 1 mM heme (MW 652 g/mol) was prepared by first dissolving 38.9 mg heme (Sigma H5533) in 1 mL of 1.0M NaOH and then mixing 100 μL of the resulting solution with 6 mL 100 mM borate buffer, pH 9.1.
The absorbance data in Table 4 was acquired using a SpectraMax M2 plate reader (Molecular Devices) in 96-sample format. The HRP stock solution was diluted serially with 100 mM sodium phosphate, pH 7.0, to make 2000, 500 and 50 pM solutions. 10 μL of each solution was then mixed with 90 μL 3,3′,5,5′-tetramethylbenzidine (TMB) liquid substrate system (Sigma T8665) to define t=0. The absorbance at 650 nm was measured after 30 min and corrected for the absorbance of TMB solution without added HRP.
The heme stock solution was diluted serially with 100 mM borate buffer, pH 9.1, to make 2000 pM, 500 pM, and 50 pM solutions. 10 μL of each solution was first mixed with 1 μL of the apo-HRP stock solution and then immediately mixed with 90 μL TMB liquid substrate system to define t=0. The absorbance at 650 nm was measured after 30 min and corrected for the absorbance of a mixture of apo-HRP and TMB liquid substrate system without added heme.

[4] = biological target: T1, apo-horseradish peroxidase (apo-HRP); assay: Signal enhancement from HRP-based cascade using a chromogenic substrate (TMB); conditions: 6 minutes after adding TMB liquid substrate; mixtures pre-incubated 16 hours at room temperature
Experimental: The samples in Table 2 were prepared from the following stock solutions. A 120 μM stock solution of apo-HRP was prepared by adding 2 mL phosphate-buffered saline (PBS, Pierce 28372) to 10 mg lyophilized apo-HRP (Sigma 6278, MW=43000 g/mol). A 250 μM stock solution of horseradish peroxidase type VI (HRP, Sigma P8375, MW=44000 g/mol) was prepared by solubilizing 11 mg lyophilized protein in 1 mL 100 mM sodium phosphate, pH 7.0. A 1 kU/mL stock solution of butyrylcholine esterase was prepared by dissolving 1 kU lyophilized protein (Sigma C1057) in 1 mL phosphate-buffered saline (PBS, Pierce 28372). […] The 1 cm-path length absorbance of this 10% methanol solution was measured to be 17 absorbance units (au) at 390 nm using a NanoDrop-1000 Spectrophotometer. […]
Samples A1, A2, B1, and B2 were each combined with 95 μL 3,3′,5,5′-tetramethylbenzidine (TMB) liquid substrate system (Sigma T8665), which includes hydrogen peroxide. After 6 minutes OD was determined at 650 nm in a 96-well format using a SpectraMax M2 plate reader (Molecular Devices). These signals are recorded in Table 2 above.
Relative signal enhancement was calculated by subtracting appropriate background signals from wells A1 and A2, and then taking a ratio. […] The calculated signal enhancement is thus equal to (A1−B2)/(A2−B1), which corresponds to (1.05−0.16)/(0.10−0.04)=15. […]

acetylcholine esterase: acetylcholine esterase (Sigma C2888)
Rescue of peroxidase activity of apo-HRP plus heme bis choline ester [1]: did not demonstrably rescue peroxidase activity

heme mono choline ester [Mono ester]
Hydrolysis vs. Time, converted to concentration ([2]; 0.75 hr): 28 AUC units | Hydrolysis vs. Time, converted to concentration ([2]; 2.75 hr): 29 AUC units | Hydrolysis vs. Time, converted to concentration ([2]; 21 hr): 24 AUC units

heme bis choline ester [Bis ester]
Hydrolysis vs. Time, converted to concentration ([2]; 0 hr): 100 AUC units | Hydrolysis vs. Time, converted to concentration ([2]; 0.75 hr): 60 AUC units | Hydrolysis vs. Time, converted to concentration ([2]; 2.75 hr): 52 AUC units | Hydrolysis vs. Time, converted to concentration ([2]; 21 hr): 41 AUC units | Peroxidase activity of mixture with apo-HRP compared with heme ([1]; sample 1 versus sample 4, 10-fold excess of heme bis choline ester): less peroxidase activity

C=CC1=C(C)c2cc3[n-]c(cc4[n-]c(cc5nc(cc1n2)C(C)=C5C=C)c(C)c4CCC(=O)O)c(CCC(=O)O)c3C.[Fe+2] [Heme, heme]
HPLC peak area (hydrolysis progress) ([2]; 0.75 hr): 7 AUC units | HPLC peak area (hydrolysis progress) ([2]; 2.75 hr): 12 AUC units | HPLC peak area (hydrolysis progress) ([2]; 21 hr): 21 AUC units | OD 650 nm ([3]; 5 fmol): 0.07 | OD 650 nm ([3]; 20 fmol): 0.79

BCE: butyrylcholine esterase (Sigma C1057)
Rescue of peroxidase activity of apo-HRP plus heme bis choline ester [1]: rescued

A2: 5 μL of 0.13 nM HRP (0.7 fmol) [Sample A2]
OD 650 nm [4]: 0.10

horseradish peroxidase: horseradish peroxidase type VI (Sigma P8375)
OD 650 nm ([3]; 5 fmol): 0.88 | OD 650 nm ([3]; 20 fmol): 3.4
